Assay results as given in patent US9260438B2, “Solid forms of tofacitinib salts” (APOTEX INC., priority 2014, dated 2016).
Counter-ions that a name gives are not always drawn.

Experiments:
physchem = details: thermodynamic from solid
[1] = Solubility of solid forms in water (visual dissolution); details: deionized water added drop-wise with agitation until visual dissolution of the solid; hydrochloride

SMILES	Solubility [1]	also measured
C[C@@H]1CCN(C(=O)CC#N)C[C@@H]1N(C)c1ncnc2[nH]ccc12.O=C(O)CC(O)(CC(=O)O)C(=O)O [Tofacitinib citrate, 3-{(3R,4R)-4-methyl-3-[methyl-(7H-pyrrolo[2,3-d]pyrimidin-4-yl)-amino]-piperidin-1-yl}-3-oxo-propionitrile mono-citrate salt, reference compound]		Solubility (physchem; water): ~2 mg/mL
C[C@@H]1CCN(C(=O)CC#N)C[C@@H]1N(C)c1ncnc2[nH]ccc12 [Tofacitinib hydrochloride (APO-A), tofacitinib hydrochloride]		Solubility (physchem; deionized water): 2500 mg/mL
C[C@@H]1CCN(C(=O)CC#N)C[C@@H]1N(C)c1ncnc2[nH]ccc12 [Tofacitinib hydrochloride (APO-B), tofacitinib hydrochloride]	2294 mg/mL	
C[C@@H]1CCN(C(=O)CC#N)C[C@@H]1N(C)c1ncnc2[nH]ccc12 [Tofacitinib hydrochloride (APO-C), tofacitinib hydrochloride]	2235 mg/mL	
C[C@@H]1CCN(C(=O)CC#N)C[C@@H]1N(C)c1ncnc2[nH]ccc12 [Tofacitinib hydrochloride (APO-D), tofacitinib hydrochloride]	2145 mg/mL	
C[C@@H]1CCN(C(=O)CC#N)C[C@@H]1N(C)c1ncnc2[nH]ccc12 [Tofacitinib hydrochloride (APO-E), tofacitinib hydrochloride]	2235 mg/mL	
C[C@@H]1CCN(C(=O)CC#N)C[C@@H]1N(C)c1ncnc2[nH]ccc12 [Tofacitinib hydrochloride (APO-G), tofacitinib hydrochloride]	2000 mg/mL	
